Experimental data: publication PMC10862539, “Chelation of Mitochondrial Iron as an Antiparasitic Strategy” (ACS Infectious Diseases, 2024)
Where two headings read alike, the source gives them in different places.

How the values were obtained:
[1] = tested on: L. mexicana (amastigote); test: Drug sensitivity assay, axenic L. mexicana amastigote (flow cytometry); type: cell-based, Leishmania mexicana
Protocol: (§1) All organisms were cultivated according to the conditions summarized in Table S2, which also includes strain specifications. Dose–response curves were obtained by their cultivation on 96 well plates in a 2-fold series dilution of the appropriate drug, in a total volume of 200 μL (with the exception of P. falciparum, where the total volume was 100 μL). Iron supplementation was achieved by mixing the compound with Fe-NTA in an equimolar ratio prior to setting up the experiment. Results were plotted and processed using Prism 8.0 (GraphPad Software). A two-tailed unpaired t-test was performed to assess the significance of the difference between mitoDFO with and without added iron. Selectivity was calculated as the ratio of the average EC50 value for human fibroblasts to the average EC50 value for the appropriate pathogen. All data were obtained from a minimum of three independent biological replicates.

[2] = tested on: N. fowleri; test: Drug sensitivity assay, N. fowleri (flow cytometry); type: cell-based; details: Naegleria fowleri; reference compound; N. fowleri; 72 h; read-out: control EC50
Protocol: as §1

[3] = tested on: murine macrophage; test: Intracellular L. mexicana infection assay, macrophage population; type: cell-based, mouse; details: infected macrophages, 72 h treatment, read-out: EC50 infection assay murine macrophage
Protocol: (§2) Approximately 10 000 murine macrophages per well were seeded on 96 well plate, and a suspension of 60 000 L. mexicana GFP-expressing promastigotes was added to each well and left to infect the mammal cells for 72 h in a cultivation medium under the conditions described in Table S2. 2-fold dilution series starting with 100 μM of either mitoDFO, DFO, or Amphotericin B in a regular growth medium were added, and cultures were incubated for further 72 h in the same conditions. Macrophage cells were washed and resuspended in growth medium and detached by pipetting, and their concentration in each well was measured on a Guava EasyCyte 8HT flow cytometer (Luminex). The GFP signal of internalized L. mexicana amastigotes in each macrophage was detected using a 488 nm excitation laser and a 525/30 nm detector. Median fluorescence graphs were plotted, and EC50 values for both macrophages and intracellular L. mexicana were calculated using Prism 8.0 (GraphPad Software).

[4] = tested on: murine macrophage; test: Murine macrophage axenic monoculture EC50; type: cell-based, mouse; details: axenic monoculture, read-out: EC50 axenic murine macrophage
[5] = tested on: C. albicans; test: Drug sensitivity assay, C. albicans (OD600); type: cell-based, Candida albicans; details: Candida albicans; reference compound; C. albicans; 48 h; read-out: control EC50
Protocol: as §1

[6] = tested on: L. major (promastigote); test: Drug sensitivity assay, L. major promastigote (flow cytometry); type: cell-based; details: Leishmania major; reference compound; L. major (promastigote); 120 h; read-out: control EC50
Protocol: as §1

[7] = tested on: A. castellanii; test: Drug sensitivity assay, A. castellanii (flow cytometry); type: cell-based, Acanthamoeba castellanii; details: Acanthamoeba castellanii; reference compound; A. castellanii; 96 h; read-out: control EC50
Protocol: as §1

[8] = tested on: intracellular Leishmania mexicana amastigotes; test: Intracellular L. mexicana infection assay, GFP amastigotes in macrophages; type: cell-based; details: intracellular amastigotes, 72 h treatment, read-out: EC50 infection assay Leishmania mexicana
Protocol: as §2

[9] = tested on: C. neoformans; test: Drug sensitivity assay, C. neoformans (OD600); type: cell-based, Cryptococcus neoformans; details: Cryptococcus neoformans; reference compound; C. neoformans; 72 h; read-out: control EC50
Protocol: as §1

[10] = tested on: B. divergens; test: Drug sensitivity assay, B. divergens in bovine erythrocytes (flow cytometry); type: cell-based, Babesia divergens; details: Babesia divergens, Erythrocyte; reference compound; B. divergens; 48 h; read-out: control EC50
Protocol: as §1

[11] = tested on: G. intestinalis; test: Drug sensitivity assay, G. intestinalis (flow cytometry); type: cell-based; details: Giardia duodenalis; reference compound; G. intestinalis; 24 h; read-out: control EC50
Protocol: as §1

[12] = tested on: P. falciparum; test: Drug sensitivity assay, P. falciparum (SYBR green I); type: cell-based, Plasmodium falciparum; details: Plasmodium falciparum, 48 h, read-out: control EC50
Protocol: as §1

[13] = tested on: T. brucei 427 (BSF); test: Drug sensitivity assay, T. brucei 427 bloodstream form (resazurine); type: cell-based, Trypanosoma brucei; details: Trypanosoma brucei
Protocol: as §1

[14] = tested on: T. gambiense (BSF); test: Drug sensitivity assay, T. gambiense bloodstream form (resazurine); type: cell-based, Trypanosoma gambiense; details: Trypanosoma brucei; reference compound; T. gambiense (BSF); 72 h; read-out: control EC50
Protocol: as §1

[15] = tested on: T. brucei STIB (BSF); test: Drug sensitivity assay, T. brucei STIB bloodstream form (resazurine); type: cell-based, Trypanosoma brucei; details: Trypanosoma brucei; reference compound; T. brucei STIB (BSF); 72 h; read-out: control EC50
Protocol: as §1

Structure (SMILES): C[C@@H]1[C@H](O)[C@@H](C)/C=C/C=C/C=C/C=C/C=C/C=C/C=C/[C@H](O[C@@H]2O[C@H](C)[C@@H](O)[C@H](N)[C@@H]2O)C[C@@H]2O[C@](O)(C[C@@H](O)C[C@@H](O)[C@H](O)CC[C@@H](O)C[C@@H](O)CC(=O)O[C@H]1C)C[C@H](O)[C@H]2C(=O)O [AmpB, amphotericin B, reference compound]
- EC50 ([1]; Leishmania mexicana, axenic monoculture, read-out: EC50 axenic Leishmania mexicana): 330 ± 80 nM
- EC50 ([1]; Leishmania mexicana, reference compound, L. mexicana (amastigote), 120 h, read-out: control EC50): 320 ± 35 nM
- EC50 [2]: 69 ± 9 nM
- EC50 ([3]; Mus musculus, Macrophage): 29.1 ± 5.91 µM
- EC50 ([4]; Mus musculus, Macrophage): > 25000 nM
- EC50 [5]: 1500 ± 100 nM
- EC50 [6]: 24 ± 8 nM
- EC50 [7]: 8.1 ± 1.6 µM
- EC50 ([8]; Leishmania mexicana, Macrophage): 3770 ± 400 nM
- EC50 [9]: 200 ± 100 nM

Structure (SMILES): CN(C)CCOc1ccc(/C(=C(/CCCCCCCCCC[P+](c2ccccc2)(c2ccccc2)c2ccccc2)c2ccccc2)c2ccccc2)cc1 [MitoTam]
- EC50 ([1]; axenic monoculture, read-out: EC50 axenic Leishmania mexicana): 350 nM
- EC50 [3]: 0.26 µM
- EC50 [4]: 390 nM
- EC50 [8]: ~100 nM

Structure (SMILES): O=C1C(O)=C([C@H]2CC[C@H](c3ccc(Cl)cc3)CC2)C(=O)c2ccccc21 [atovaquone, reference compound]
- EC50 [10]: 8 ± 1 nM

Structure (SMILES): O=C(Cn1ccnc1[N+](=O)[O-])NCc1ccccc1 [benznidazole]
- EC50 [11]: 2600 ± 1400 nM

Structure (SMILES): CCN(CC)CCCC(C)Nc1ccnc2cc(Cl)ccc12 (stereo not drawn) [chloroquine, reference compound]
- EC50 [12]: 15 ± 1 nM

Structure (SMILES): CSc1ccc(OCc2ncc([N+](=O)[O-])n2C)cc1 [fexinidazole]
- EC50 ([13]; T. brucei 427, comparison drug in text, read-out: EC50): 4840 nM

Structure (SMILES): N=C(N)c1ccc(OCCCCCOc2ccc(C(=N)N)cc2)cc1 [pentamidine]
- EC50 [14]: 2 ± 0.5 nM
- EC50 [15]: 1 ± 0.4 nM
- EC50 ([13]; reference compound, T. brucei 427 (BSF), 72 h, read-out: control EC50): 7 ± 1 nM
